Columns and labels:
[1] = system: Leptosphaeria nodorum (LEPTNO); test: In vitro fungitoxicity of hydrazones with and without copper towards Leptosphaeria nodorum (Example 26); format: cell-based; conditions: test compound Concn. 0.05 μg/mL, 72 h at 25° C.; for inhibition of growth at 0.05 µg/mL: Parastagonospora nodorum, 72 h, copper-minus medium, read-out: LEPTNO % Inhn. Minus Copper Observed; for LEPTNO % Inhn. Plus Copper Observed: copper-plus medium (CuCl2 10 μM)
Phytophthora infestans = format: in vivo, Phytophthora infestans on tomato; conditions: hydrazone 50 ppm with 50 μM CuCl2.2H2O, applied 24 h before inoculation; assessed 7 days after inoculation; tomato late blight

| Compound | inhibition of growth at 0.05 µg/mL [1] [%] | LEPTNO % Inhn. Plus Copper Observed [1] [%] | TLB % Control (Phytophthora infestans) [%] | melting point |
| --- | --- | --- | --- | --- |
| O=C(N/N=C/c1ccc(Cl)c(Cl)c1O)c1cccc(Cl)c1 [Example 358] | 12.7 | 98.3 | 100.0 | 219 to 222 °C |
| O=C(N/N=C/c1ccc(Cl)c(Cl)c1O)c1cccc([N+](=O)[O-])c1 [Example 360] | 17.6 | 96.9 | 97.0 | 269 to 271 °C |
| O=C(N/N=C/c1ccc(Cl)c(Cl)c1O)c1ccc([N+](=O)[O-])cc1 [Example 361] | 3.3 | 96.4 | 97.0 | 237 to 243 °C |
| O=C(N/N=C/c1ccc(Cl)c(Cl)c1O)c1ccccc1O [Example 362] | 11.1 | 97.2 | 97.0 | 280 to 282 °C |
| O=C(N/N=C/c1ccc(Cl)c(Cl)c1O)c1ccccc1C(F)(F)F [Example 363] | 4.3 | 94.7 | 92.0 | 209 to 213 °C |
| Cc1cccc(C(=O)N/N=C/c2c(Cl)ccc(Cl)c2O)c1 [Example 365] | 13.8 | 95.6 | 95.0 | 214 to 216 °C |
| Cc1ccc(C(=O)N/N=C/c2c(Cl)ccc(Cl)c2O)cc1 [Example 366] | 14.2 | 96.6 | 100.0 | 267 to 269 °C |
| O=C(N/N=C/c1c(Cl)ccc(Cl)c1O)c1cccc(F)c1 [Example 367] | 13.1 | 97.9 | 95.0 | 203 to 209 °C |
| O=C(N/N=C/c1c(Cl)ccc(Cl)c1O)c1ccc(F)cc1 [Example 368] | 0 | 96.9 | 98.0 | 264 to 267 °C |
| O=C(N/N=C/c1c(Cl)ccc(Cl)c1O)c1cccc([N+](=O)[O-])c1 [Example 371] | 12.6 | 96.1 | 98.0 | 273 to 277 °C |
| O=C(N/N=C/c1c(Cl)ccc(Cl)c1O)c1ccccc1O [Example 372] | 15.1 | 97.4 | 98.0 | 260 to 262 °C |
| O=C(N/N=C/c1c(Cl)ccc(Cl)c1O)c1ccccc1C(F)(F)F [Example 373] | 0 | 97.3 | 90.0 | 221 to 222 °C |
| Cc1ccc(C(=O)N/N=C/c2c(Cl)ccc(Cl)c2O)c(O)c1 [Example 374] | 11.1 | 98.2 | 98.0 | 248 to 254 °C |
| O=C(N/N=C/c1c(Cl)ccc(Cl)c1O)c1ccc([N+](=O)[O-])cc1 [Example 375] | 7.2 | 98.2 | 90.0 | 250 to 300 °C (dec.) |
| Cc1cccc(C(=O)N/N=C/c2cc(Cl)cc(C(F)(F)F)c2O)c1 [Example 376] | 13.6 | 96.5 | 98.0 | 199 to 201 °C |
| Cc1ccc(C(=O)N/N=C/c2cc(Cl)cc(C(F)(F)F)c2O)cc1 [Example 377] | 29.9 | 97.6 | 100.0 | 276 to 278 °C |
| O=C(N/N=C/c1cc(Cl)cc(C(F)(F)F)c1O)c1cccc(F)c1 [Example 378] | 26.3 | 98.4 | 97.0 | 219 to 221 °C |
| O=C(N/N=C/c1cc(Cl)cc(C(F)(F)F)c1O)c1ccc(F)cc1 [Example 379] | 26.7 | 98.2 | 100.0 | 227 to 228 °C |
| O=C(N/N=C/c1cc(Cl)cc(C(F)(F)F)c1O)c1cccc(Cl)c1 [Example 380] | 36.1 | 98.3 | 100.0 | 228 to 229 °C |
| O=C(N/N=C/c1cc(Cl)cc(C(F)(F)F)c1O)c1cccc([N+](=O)[O-])c1 [Example 382] | 19.3 | 98.5 | 96.0 | 235 to 237 °C |
| O=C(N/N=C/c1cc(Cl)cc(C(F)(F)F)c1O)c1ccc([N+](=O)[O-])cc1 [Example 383] | 20.3 | 95.7 | 100.0 | 245 to 247 °C |

| Compound | inhibition of growth at 0.05 µg/mL [1] [%] | LEPTNO % Inhn. Plus Copper Observed [1] [%] | TLB % Control (Phytophthora infestans) [%] | melting point |
| --- | --- | --- | --- | --- |
| O=C(N/N=C/c1cc(Cl)cc(C(F)(F)F)c1O)c1ccccc1C(F)(F)F [Example 385] | 5.4 | 94.6 | 100.0 | 203 to 204 °C |
| Cc1ccc(C(=O)N/N=C/c2cc(Cl)cc(C(F)(F)F)c2O)c(O)c1 [Example 386] | 41.1 | 98.4 | 100.0 | 252 to 254 °C |
| Cc1cccc(C(=O)N/N=C/c2ccc(Cl)cc2O)c1 [Example 387] | 13.5 | 96.9 | 87.0 | 201 to 203 °C |
| Cc1ccc(C(=O)N/N=C/c2ccc(Cl)cc2O)cc1 [Example 388] | 17.2 | 98.1 | 61.0 | 258 to 260 °C |
| O=C(N/N=C/c1ccc(Cl)cc1O)c1cccc(F)c1 [Example 389] | 7.7 | 97.6 | 95.0 | 218 to 222 °C |
| O=C(N/N=C/c1ccc(Cl)cc1O)c1ccc(F)cc1 [Example 390] | 4.2 | 97.5 | 95.0 | 226 to 228 °C |
| O=C(N/N=C/c1ccc(Cl)cc1O)c1cccc([N+](=O)[O-])c1 [Example 393] | 4.3 | 96.1 | 73.0 | 233 to 238 °C |
| O=C(N/N=C/c1ccc(Cl)cc1O)c1ccc([N+](=O)[O-])cc1 [Example 394] | 8 | 95.9 | 71.0 | 278 to 281 °C |
| O=C(N/N=C/c1ccc(Cl)cc1O)c1ccccc1O [Example 395] | 8.2 | 93.9 | 76.0 | 210 to 213 °C |
| O=C(N/N=C/c1ccc(Cl)cc1O)c1ccccc1C(F)(F)F [Example 396] | 0 | 95.5 | 49.0 | 197 to 200 °C |
| Cc1cccc(C(=O)N/N=C/c2c(O)cccc2Cl)c1 [Example 398] | 5.4 | 94.7 | 98.0 | 245 to 248 °C |
| Cc1ccc(C(=O)N/N=C/c2c(O)cccc2Cl)cc1 [Example 399] | 5.8 | 97.1 | 88.0 | 250 to 252 °C |
| O=C(N/N=C/c1c(O)cccc1Cl)c1cccc(F)c1 [Example 400] | 0.5 | 97.9 | 96.0 | 257 to 259 °C |
| O=C(N/N=C/c1c(O)cccc1Cl)c1ccc(F)cc1 [Example 401] | 0 | 94.8 | 98.0 | 266 to 268 °C |
| O=C(N/N=C/c1c(O)cccc1Cl)c1cccc(Cl)c1 [Example 402] | 0 | 95.2 | 100.0 | 250 to 253 °C |
| O=C(N/N=C/c1c(O)cccc1Cl)c1cccc([N+](=O)[O-])c1 [Example 404] | 0 | 94.9 | 97.0 | 269 to 270 °C |
| O=C(N/N=C/c1c(O)cccc1Cl)c1ccccc1O [Example 406] | 6.7 | 96.1 | 98.0 | 277 to 280 °C |
| O=C(N/N=C/c1c(O)cccc1Cl)c1ccccc1C(F)(F)F [Example 407] | 0 | 92.0 | 70.0 | 222 to 226 °C |
| Cc1ccc(C(=O)N/N=C/c2c(O)cccc2Cl)c(O)c1 [Example 408] | 8.4 | 79.7 | 94.0 | 273 to 276 °C |
| O=C(N/N=C/c1cc(Br)cc(F)c1O)c1ccccc1O [Example 409] | 7.9 | 96.3 | 98.0 | 297 to 299 °C |
| O=C(N/N=C/c1cc(Br)cc(F)c1O)c1ccccc1 [Example 410] | 1.9 | 97.6 | 95.0 | 211 to 212 °C |

— patent US20120010075A1 (priority 2009, published 2012)
